In US20230113037A1 (Bayer Aktiengesellschaft, priority 2019, published 2023):
pIC50: −log10 of the molar value. Like-named read-outs stand apart in the source and are kept apart here.

Legend:
AHR [1] = biological target: T1, AHR (Mus musculus, UniProt P30561); test: In vitro assay 3: antagonism in mouse cell line (AHR transactivation, firefly luciferase reporter, kynurenic acid prestimulated); assay type: cell-based
T1 sequence (P30561 1-848 P471L/N533S/M589L): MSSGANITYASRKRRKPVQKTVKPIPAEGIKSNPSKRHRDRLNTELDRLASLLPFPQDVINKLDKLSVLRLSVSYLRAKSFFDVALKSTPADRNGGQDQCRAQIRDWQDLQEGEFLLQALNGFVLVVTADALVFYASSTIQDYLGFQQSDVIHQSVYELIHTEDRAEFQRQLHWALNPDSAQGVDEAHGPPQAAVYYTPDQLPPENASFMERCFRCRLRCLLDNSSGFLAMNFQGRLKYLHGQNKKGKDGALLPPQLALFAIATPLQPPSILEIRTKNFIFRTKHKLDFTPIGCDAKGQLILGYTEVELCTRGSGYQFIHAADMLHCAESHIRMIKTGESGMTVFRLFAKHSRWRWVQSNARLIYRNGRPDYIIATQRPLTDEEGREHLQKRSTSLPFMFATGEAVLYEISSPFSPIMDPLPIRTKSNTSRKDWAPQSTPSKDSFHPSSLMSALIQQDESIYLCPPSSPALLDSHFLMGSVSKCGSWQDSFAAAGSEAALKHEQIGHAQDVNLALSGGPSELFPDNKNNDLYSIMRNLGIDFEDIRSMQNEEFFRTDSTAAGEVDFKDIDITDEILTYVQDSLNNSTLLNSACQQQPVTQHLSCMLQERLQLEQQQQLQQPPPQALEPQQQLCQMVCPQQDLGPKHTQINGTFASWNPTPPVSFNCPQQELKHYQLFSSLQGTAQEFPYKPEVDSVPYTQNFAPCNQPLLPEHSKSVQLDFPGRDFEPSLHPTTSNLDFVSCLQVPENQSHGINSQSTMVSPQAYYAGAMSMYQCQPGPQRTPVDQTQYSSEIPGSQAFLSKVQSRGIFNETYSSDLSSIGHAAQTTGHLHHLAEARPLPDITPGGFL
How it was run: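 Mouse cells stably carrying a DRE-driven, AHR-inducible firefly luciferase reporter were prestimulated with the endogenous agonist kynurenic acid before compound addition. Luciferase activity was measured by luminescence and normalized to positive and negative controls, with cells lacking kynurenic acid serving as full-inhibition control. Repeat tests are reported as mean or median.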

AHR [2] = biological target: T2, AHR (Homo sapiens, UniProt P35869); test: In vitro assay 1: antagonism in human cell line (AHR transactivation, firefly luciferase reporter, kynurenic acid prestimulated); assay type: cell-based; conditions: AHR Antagonism Human IC50 [M]
T2 construct: U87 MG glioblastoma cells (ATCC #HTB-14) endogenously expressing AHR; endogenous in cells; host or cells: U87 MG glioblastoma cells (ATCC #HTB-14)
T2 sequence (P35869 11-848): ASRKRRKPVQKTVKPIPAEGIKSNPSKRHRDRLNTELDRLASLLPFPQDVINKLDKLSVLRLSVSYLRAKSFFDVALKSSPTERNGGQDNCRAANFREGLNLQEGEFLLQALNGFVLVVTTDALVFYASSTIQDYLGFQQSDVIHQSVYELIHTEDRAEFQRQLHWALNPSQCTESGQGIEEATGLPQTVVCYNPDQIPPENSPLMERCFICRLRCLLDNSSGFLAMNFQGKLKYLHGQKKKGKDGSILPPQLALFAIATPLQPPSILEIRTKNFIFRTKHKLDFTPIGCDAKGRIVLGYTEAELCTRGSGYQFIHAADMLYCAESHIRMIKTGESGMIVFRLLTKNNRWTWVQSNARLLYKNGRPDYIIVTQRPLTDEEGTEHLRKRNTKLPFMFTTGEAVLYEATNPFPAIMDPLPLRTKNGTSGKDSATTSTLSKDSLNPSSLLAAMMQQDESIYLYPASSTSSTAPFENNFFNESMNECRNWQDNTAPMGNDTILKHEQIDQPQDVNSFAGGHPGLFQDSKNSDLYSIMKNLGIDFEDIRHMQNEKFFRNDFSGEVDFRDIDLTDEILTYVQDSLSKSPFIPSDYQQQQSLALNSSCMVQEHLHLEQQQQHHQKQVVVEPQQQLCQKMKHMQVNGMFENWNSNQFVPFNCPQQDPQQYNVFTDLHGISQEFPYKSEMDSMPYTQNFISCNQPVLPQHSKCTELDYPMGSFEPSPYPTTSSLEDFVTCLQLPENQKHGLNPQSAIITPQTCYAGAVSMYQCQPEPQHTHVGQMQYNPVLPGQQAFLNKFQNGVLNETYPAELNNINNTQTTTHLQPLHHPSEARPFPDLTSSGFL
How it was run: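 U87 MG + DRE-firefly/constitutive-Renilla stable reporters; kynurenic acid prestim; dual-luc read; Renilla = tox; normalized vs pos/neg controls (pos: 150 μM KYNA + 5 μM staurosporine).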

[3] = mouse Hepa 1c1c7 cells, 200 μM kynurenic acid, 20 hours, read-out: AHR Antagonism Mouse IC50
[4] = Hepa 1c1c7 cells, 200 μM kynurenic acid, 20 hours, firefly luciferase reporter, read-out: AHR Antagonism Mouse IC50

| Compound | pIC50 (AHR [1]; [3]) | IC50 (AHR [2]) | pIC50 (AHR [1]; [4]) | IC50 (AHR [2]; firefly luciferase reporter) | pIC50 (AHR [1]; read-out: AHR Antagonism Mouse IC50, mouse Hepa 1c1c7 cells, 200 μM kynurenic acid, 20 hours) |
| --- | --- | --- | --- | --- | --- |
| CNC(=O)[C@@H](C)Nc1nc2ccccc2c2nc(-c3cccc(OC)c3)nn12 [Example 108, N^2-[2-(3-methoxyphenyl)[1,2,4]triazolo[1,5-c]quinazolin-5-yl]-N-methyl-D-alaninamide] | 8.45 | 5.75e-09 M | – | – | – |
| COc1ccc(-c2nc3c4cccc(OC)c4nc(N[C@@H]4CNCCNC4=O)n3n2)cc1 [Example 265, (6R)-6-{[7-methoxy-2-(4-methoxyphenyl)[1,2,4]triazolo[1,5-c]quinazolin-5-yl]amino}-1,4-diazepan-5-one] | 6.43 | 2.38e-07 M | – | – | – |
| COc1ccc(-c2nc3c4cccc(OCCC(F)(F)F)c4nc(N[C@@H]4CCCCNC4=O)n3n2)cc1 [Example 670, (3R)-3-{[2-(4-methoxyphenyl)-7-(3,3,3-trifluoropropoxy)[1,2,4]triazolo[1,5-c]quinazolin-5-yl]amino}azepan-2-one] | 6.80 | 2.78e-07 M | – | – | – |
| O=C1NCCCC[C@H]1Nc1nc2ccccc2c2nc(-c3cccnn3)nn12 [Example 644, (3R)-3-{[2-(pyridazin-3-yl)[1,2,4]triazolo[1,5-c]quinazolin-5-yl]amino}azepan-2-one] | 7.21 | 1.03e-07 M | – | – | – |
| CCC[C@@H](Nc1nc2ccccc2c2nc(-c3ccccc3OC(F)F)nn12)C(=O)NC [Example 477, N^2-{2-[2-(difluoromethoxy)phenyl][1,2,4]triazolo[1,5-c]quinazolin-5-yl}-N-methyl-D-norvalinamide] | 8.84 | 1.81e-08 M | – | – | – |
| CCNC(=O)C(CC)Nc1nc2ccccc2c2nc(-c3ccccc3OC(F)(F)F)nn12 (single isomer, unassigned) [Example 664, N-ethyl-2-({2-[2-(trifluoromethoxy)phenyl][1,2,4]triazolo[1,5-c]quinazolin-5-yl}amino)butanamide] | 8.83 | 1.26e-08 M | – | – | – |
| O=C1NCCCC[C@@H]1Nc1nc2ccccc2c2nc(-c3ccsc3)nn12 [Example 341] | 7.75 | 1.18e-07 M | – | – | – |
| COc1cscc1-c1nc2c3ccccc3nc(N[C@@H]3CCCCNC3=O)n2n1 [Example 333, (3R)-3-{[2-(4-Methoxythiophen-3-yl)[1,2,4]triazolo[1,5-c]quinazolin-5-yl]amino}azepan-2-one] | 7.55 | 2.74e-08 M | – | – | – |
| CN1CCNC(=O)[C@H](Nc2nc3c(Br)cccc3c3nc(-c4cnn(C)c4)nn23)C1 [Example 994, (6R)-6-{[7-bromo-2-(1-methyl-1H-pyrazol-4-yl)[1,2,4]triazolo[1,5-c]quinazolin-5-yl]amino}-1-methyl-1,4-diazepan-5-one] | – | – | 7.59 | 2.32e-08 M | – |
| CC(C)Oc1ccc(-c2nc3c4ccccc4nc(N[C@@H]4CCCCNC4=O)n3n2)cc1F [Example 632, (3R)-3-[(2-{3-fluoro-4-[(propan-2-yl)oxy]phenyl}[1,2,4]triazolo[1,5-c]quinazolin-5-yl)amino]azepan-2-one] | 9.11 | 1.29e-09 M | – | – | – |
| O=C1NCCCC[C@@H]1Nc1nc2c(Br)cccc2c2nc(-c3ccc(Cl)cc3OC(F)F)nn12 [Example 576, (3S)-3-({7-bromo-2-[4-chloro-2-(difluoromethoxy)phenyl][1,2,4]triazolo[1,5-c]quinazolin-5-yl}amino)azepan-2-one] | 8.53 | 1.77e-08 M | – | – | – |
| COc1ccc(-c2nc3c4ccc(C)cc4nc(N[C@@H]4CCCCNC4=O)n3n2)cc1 [Example 228, (3R)-3-{[2-(4-methoxyphenyl)-8-methyl[1,2,4]triazolo[1,5-c]quinazolin-5-yl]amino}azepan-2-one] | 7.41 | 3.01e-08 M | – | – | – |
| O=C1NCCCC[C@H]1Nc1nc2ccccc2c2nc(-c3ccc(O)cc3)nn12 [Example 614, (3R)-3-{[2-(4-hydroxyphenyl)[1,2,4]triazolo[1,5-c]quinazolin-5-yl]amino}azepan-2-one] | 7.62 | 2.09e-08 M | – | – | – |
| CCOc1cccc2c1nc(N[C@@H]1CCCCNC1=O)n1nc(-c3ccc(OC)cc3)nc21 [Example 667, (3R)-3-{[7-ethoxy-2-(4-methoxyphenyl)[1,2,4]triazolo[1,5-c]quinazolin-5-yl]amino}azepan-2-one] | 8.34 | 2.68e-09 M | – | – | – |
| CSc1cccc(-c2nc3c4ccccc4nc(N[C@@H]4CCCCNC4=O)n3n2)c1 [Example 449, (3R)-3-({2-[3-(methylsulfanyl)phenyl][1,2,4]triazolo[1,5-c]quinazolin-5-yl}amino)azepan-2-one] | 7.68 | 1.73e-08 M | – | – | – |
| COc1cccc(-c2nc3c4c(C)cccc4nc(NC4CCNC4=O)n3n2)c1 (single isomer, unassigned) [Example 190, 3-{[2-(3-methoxyphenyl)-10-methyl[1,2,4]triazolo[1,5-c]quinazolin-5-yl]amino}pyrrolidin-2-one] | – | 1.54e-07 M | – | – | 6.60 |
| COc1ccc(-c2nc3c4c(C5CCOCC5)cccc4nc(N[C@@H]4CCCCNC4=O)n3n2)cc1 [Example 397, (3R)-3-{[2-(4-methoxyphenyl)-10-(oxan-4-yl)[1,2,4]triazolo[1,5-c]quinazolin-5-yl]amino}azepan-2-one] | 7.42 | 1.83e-08 M | – | – | – |
| O=C1NCCNC[C@H]1Nc1nc2c(Br)cccc2c2nc(-c3cnn(CC4CC4)c3)nn12 [Example 968, (6R)-6-({7-bromo-2-[1-(cyclopropylmethyl)-1H-pyrazol-4-yl][1,2,4]triazolo[1,5-c]quinazolin-5-yl}amino)-1,4-diazepan-5-one] | – | – | 8.13 | 6.97e-09 M | – |
| COc1ccc(-c2nc3c4cccc(C(C)(C)O)c4nc(N[C@@H]4CCCCNC4=O)n3n2)cc1 [Example 859, (3R)-3-{[7-(2-hydroxypropan-2-yl)-2-(4-methoxyphenyl)[1,2,4]triazolo[1,5-c]quinazolin-5-yl]amino}azepan-2-one] | – | – | 7.40 | 4.11e-09 M | – |
| CC(C)c1cccc2c1nc(N[C@@H]1CCCCNC1=O)n1nc(-c3cccc(F)c3)nc21 [Example 394, (3R)-3-{[2-(3-Fluorophenyl)-7-(propan-2-yl)[1,2,4]triazolo[1,5-c]quinazolin-5-yl]amino}azepan-2-one] | 7.51 | 1.16e-08 M | – | – | – |
| Cc1cscc1-c1nc2c3ccccc3nc(N[C@@H]3CCCCNC3=O)n2n1 [Example 538, (3R)-3-{[2-(4-methylthiophen-3-yl)[1,2,4]triazolo[1,5-c]quinazolin-5-yl]amino}azepan-2-one] | 9.19 | 8.79e-10 M | – | – | – |
| O=C1NCCCC[C@H]1Nc1nc2ccccc2c2nc(-c3ccnc(F)c3)nn12 [Example 638, (3R)-3-{[2-(2-fluoropyridin-4-yl)[1,2,4]triazolo[1,5-c]quinazolin-5-yl]amino}azepan-2-one] | 7.98 | 4e-09 M | – | – | – |
| COc1cccc(-c2nc3c4ccccc4nc(NC4(C(N)=O)COC4)n3n2)c1 [Example 87, 3-{[2-(3-methoxyphenyl)[1,2,4]triazolo[1,5-c]quinazolin-5-yl]amino}oxetane-3-carboxamide] | 6.55 | 4.85e-07 M | – | – | – |
